{"source": "patent US6914045B2", "about": "“Glycopeptide antibiotics” (Wyeth Holdings Corporation, priority 2001, dated 2005)", "assay_in_all_cases": "in vitro antibacterial evaluation, MIC by broth dilution", "assay_type_in_all_cases": "cell-based", "key": {"Enterococcus sp.": {"test_system": "Enterococcus sp.", "details": "broth dilution, 18 hours at 35° C.", "how_it_was_run": "(§1)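 Test organisms, which included recent clinical isolates resistant to methicillin, penicillin and/or vancomycin, were inoculated at 5×10^5 CFU/mL into Muller-Hinton II […] containing antibiotic at 64-0.06 μg/mL. Minimum inhibitory concentrations were then read as the lowest level inhibiting growth.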"}, "Streptococcus sp.": {"test_system": "Streptococcus sp.", "details": "broth dilution, 18 hours at 35° C.", "how_it_was_run": "as §1"}, "Staphylococcus sp.": {"test_system": "Staphylococcus sp.", "details": "broth dilution, 18 hours at 35° C.", "how_it_was_run": "as §1"}, "Escherichia coli": {"test_system": "Escherichia coli", "details": "18 hours at 35° C.", "how_it_was_run": "as §1"}}}
{"compound": "CC(c1ccccc1)C1NC(=O)CNC(=O)C(CO)NC(=O)C(C(O)C2CNC(=N)N2C2OC(CO)C(O)C(O)C2O)NC(=O)C(C(O)C2CNC(=N)N2)NC(=O)C(Cc2ccc(OC3OC(CO)C(OC4OC5COC(CCc6ccccc6)OC5C(O)C4O)C(O)C3O)cc2)NC1=O", "note": "(stereo not shown) [Example 124]", "values": [{"measurement": "MIC Enterococcus avium (GC 4558)", "setting": "Enterococcus sp.; Enterococcus avium (GC 4558)", "value": 0.25, "unit": "µg/mL"}, {"measurement": "MIC Enterococcus faecalis (ATCC 29212)", "setting": "Enterococcus sp.; Enterococcus faecalis (ATCC 29212)", "value": 4, "unit": "µg/mL"}, {"measurement": "MIC Enterococcus faecalis (GC 2242)", "setting": "Enterococcus sp.; Enterococcus faecalis (GC 2242)", "value": 4, "unit": "µg/mL"}, {"measurement": "MIC Enterococcus faecalis (GC 2691)", "setting": "Enterococcus sp.; Enterococcus faecalis (GC 2691)", "value": 4, "unit": "µg/mL"}, {"measurement": "MIC Enterococcus faecalis (GC 3059)", "setting": "Enterococcus sp.; Enterococcus faecalis (GC 3059)", "value": 4, "unit": "µg/mL"}, {"measurement": "MIC Enterococcus faecalis (GC 4552)", "setting": "Enterococcus sp.; Enterococcus faecalis (GC 4552)", "value": 4, "unit": "µg/mL"}, {"measurement": "MIC Enterococcus faecalis (GC 4553)", "setting": "Enterococcus sp.; Enterococcus faecalis (GC 4553)", "value": 4, "unit": "µg/mL"}, {"measurement": "MIC Enterococcus faecalis (GC 4554)", "setting": "Enterococcus sp.; Enterococcus faecalis (GC 4554)", "value": 4, "unit": "µg/mL"}, {"measurement": "MIC Enterococcus faecalis (GC 6189)", "setting": "Enterococcus sp.; Enterococcus faecalis (GC 6189)", "value": 4, "unit": "µg/mL"}, {"measurement": "MIC Enterococcus faecium (GC 2243)", "setting": "Enterococcus sp.; Enterococcus faecium (GC 2243)", "value": 4, "unit": "µg/mL"}, {"measurement": "MIC Enterococcus faecium (GC 4556)", "setting": "Enterococcus sp.; Enterococcus faecium (GC 4556)", "value": 4, "unit": "µg/mL"}, {"measurement": "MIC Enterococcus faecium (GC 4557)", "setting": "Enterococcus sp.; Enterococcus faecium (GC 4557)", "value": 1, "unit": "µg/mL"}, {"measurement": "MIC Enterococcus faecalis (ATCC 29212)", "setting": "Enterococcus sp.; strain ATCC 29212", "value": 4, "unit": "µg/mL"}, {"measurement": "MIC Enterococcus faecalis (GC 2242)", "setting": "Enterococcus sp.; strain GC 2242", "value": 4, "unit": "µg/mL"}, {"measurement": "MIC Enterococcus faecium (GC 2243)", "setting": "Enterococcus sp.; strain GC 2243", "value": 4, "unit": "µg/mL"}, {"measurement": "MIC Enterococcus faecalis (GC 2691)", "setting": "Enterococcus sp.; strain GC 2691", "value": 4, "unit": "µg/mL"}, {"measurement": "MIC Enterococcus faecalis (GC 3059)", "setting": "Enterococcus sp.; strain GC 3059", "value": 4, "unit": "µg/mL"}, {"measurement": "MIC Enterococcus faecalis (GC 4552)", "setting": "Enterococcus sp.; strain GC 4552", "value": 4, "unit": "µg/mL"}, {"measurement": "MIC Enterococcus faecalis (GC 4553)", "setting": "Enterococcus sp.; strain GC 4553", "value": 4, "unit": "µg/mL"}, {"measurement": "MIC Enterococcus faecalis (GC 4554)", "setting": "Enterococcus sp.; strain GC 4554", "value": 4, "unit": "µg/mL"}, {"measurement": "MIC Enterococcus faecium (GC 4556)", "setting": "Enterococcus sp.; strain GC 4556", "value": 4, "unit": "µg/mL"}, {"measurement": "MIC Enterococcus faecium (GC 4557)", "setting": "Enterococcus sp.; strain GC 4557", "value": 1, "unit": "µg/mL"}, {"measurement": "MIC Enterococcus avium (GC 4558)", "setting": "Enterococcus sp.; strain GC 4558", "value": 0.25, "unit": "µg/mL"}, {"measurement": "MIC Enterococcus faecalis (GC 6189)", "setting": "Enterococcus sp.; strain GC 6189", "value": 4, "unit": "µg/mL"}, {"measurement": "MIC Streptococcus agalactiae (GC 4564)", "setting": "Streptococcus sp.; Streptococcus agalactiae (GC 4564)", "value": 1, "unit": "µg/mL"}, {"measurement": "MIC Streptococcus pneumoniae (ATCC 6301)", "setting": "Streptococcus sp.; Streptococcus pneumoniae (ATCC 6301)", "value": "<0.06", "unit": "µg/mL"}, {"measurement": "MIC Streptococcus pneumoniae (GC 1894)", "setting": "Streptococcus sp.; Streptococcus pneumoniae (GC 1894)", "value": "<0.06", "unit": "µg/mL"}, {"measurement": "MIC Streptococcus pneumoniae (GC 4565)", "setting": "Streptococcus sp.; Streptococcus pneumoniae (GC 4565)", "value": "<0.06", "unit": "µg/mL"}, {"measurement": "MIC Streptococcus pyogenes (GC 4563)", "setting": "Streptococcus sp.; Streptococcus pyogenes (GC 4563)", "value": 0.12, "unit": "µg/mL"}, {"measurement": "MIC Streptococcus pneumoniae (ATCC 6301)", "setting": "Streptococcus sp.; strain ATCC 6301", "value": "<0.06", "unit": "µg/mL"}, {"measurement": "MIC Streptococcus pneumoniae (GC 1894)", "setting": "Streptococcus sp.; strain GC 1894", "value": "<0.06", "unit": "µg/mL"}, {"measurement": "MIC Streptococcus pyogenes (GC 4563)", "setting": "Streptococcus sp.; strain GC 4563", "value": 0.12, "unit": "µg/mL"}, {"measurement": "MIC Streptococcus agalactiae (GC 4564)", "setting": "Streptococcus sp.; strain GC 4564", "value": 1, "unit": "µg/mL"}, {"measurement": "MIC Streptococcus pneumoniae (GC 4565)", "setting": "Streptococcus sp.; strain GC 4565", "value": "<0.06", "unit": "µg/mL"}, {"measurement": "MIC Staphylococcus aureus (ATCC 29213)", "setting": "Staphylococcus sp.", "value": 2, "unit": "µg/mL"}, {"measurement": "MIC Staphylococcus aureus (GC 1131)", "setting": "Staphylococcus sp.", "value": 2, "unit": "µg/mL"}, {"measurement": "MIC Staphylococcus aureus (GC 3051)", "setting": "Staphylococcus sp.", "value": 2, "unit": "µg/mL"}, {"measurement": "MIC Staphylococcus aureus (GC 3053)", "setting": "Staphylococcus sp.", "value": 2, "unit": "µg/mL"}, {"measurement": "MIC Staphylococcus aureus (GC 4541)", "setting": "Staphylococcus sp.", "value": 2, "unit": "µg/mL"}, {"measurement": "MIC Staphylococcus aureus (GC 4542)", "setting": "Staphylococcus sp.", "value": 1, "unit": "µg/mL"}, {"measurement": "MIC Staphylococcus aureus (GC 4544)", "setting": "Staphylococcus sp.", "value": 2, "unit": "µg/mL"}, {"measurement": "MIC Staphylococcus aureus (GC 4545)", "setting": "Staphylococcus sp.", "value": 2, "unit": "µg/mL"}, {"measurement": "MIC Staphylococcus aureus (GC 1131)", "setting": "Staphylococcus sp.; inoculum 5×10^5 CFU/mL, strain GC 1131", "value": 2, "unit": "µg/mL"}, {"measurement": "MIC Staphylococcus aureus (ATCC 29213)", "setting": "Staphylococcus sp.; strain ATCC 29213", "value": 2, "unit": "µg/mL"}, {"measurement": "MIC Staphylococcus aureus (GC 3051)", "setting": "Staphylococcus sp.; strain GC 3051", "value": 2, "unit": "µg/mL"}, {"measurement": "MIC Staphylococcus aureus (GC 3053)", "setting": "Staphylococcus sp.; strain GC 3053", "value": 2, "unit": "µg/mL"}, {"measurement": "MIC Staphylococcus aureus (GC 4541)", "setting": "Staphylococcus sp.; strain GC 4541", "value": 2, "unit": "µg/mL"}, {"measurement": "MIC Staphylococcus aureus (GC 4542)", "setting": "Staphylococcus sp.; strain GC 4542", "value": 1, "unit": "µg/mL"}, {"measurement": "MIC Staphylococcus aureus-SMITH (GC 4543)", "setting": "Staphylococcus sp.; strain GC 4543", "value": 2, "unit": "µg/mL"}, {"measurement": "MIC Staphylococcus aureus (GC 4544)", "setting": "Staphylococcus sp.; strain GC 4544", "value": 2, "unit": "µg/mL"}, {"measurement": "MIC Staphylococcus aureus (GC 4545)", "setting": "Staphylococcus sp.; strain GC 4545", "value": 2, "unit": "µg/mL"}, {"measurement": "MIC Staphylococcus haemolyticus (GC 4546)", "setting": "Staphylococcus sp.; strain GC 4546", "value": 2, "unit": "µg/mL"}, {"measurement": "MIC Coagulase Negative Staphylococcus (GC 4547)", "setting": "Staphylococcus sp.; strain GC 4547", "value": 2, "unit": "µg/mL"}, {"measurement": "MIC Coagulase Negative Staphylococcus (GC 4548)", "setting": "Staphylococcus sp.; strain GC 4548", "value": 1, "unit": "µg/mL"}, {"measurement": "MIC Coagulase Negative Staphylococcus (GC 4549)", "setting": "Staphylococcus sp.; strain GC 4549", "value": 1, "unit": "µg/mL"}, {"measurement": "MIC Coagulase Negative Staphylococcus (GC 4551)", "setting": "Staphylococcus sp.; strain GC 4551", "value": 2, "unit": "µg/mL"}, {"measurement": "MIC Coagulase Negative Staphylococcus (GC 6257)", "setting": "Staphylococcus sp.; strain GC 6257", "value": 1, "unit": "µg/mL"}, {"measurement": "MIC Staphylococcus aureus-SMITH (GC 4543)", "setting": "Staphylococcus sp.; strain SMITH GC 4543", "value": 2, "unit": "µg/mL"}, {"measurement": "MIC Escherichia coli (ATCC 25922)", "setting": "Escherichia coli; strain ATCC 25922", "value": 32, "unit": "µg/mL"}, {"measurement": "MIC Escherichia coli (GC 4559)", "setting": "Escherichia coli; strain GC 4559", "value": 32, "unit": "µg/mL"}, {"measurement": "MIC Escherichia coli (GC 4560)", "setting": "Escherichia coli; strain GC 4560", "value": 1, "unit": "µg/mL"}]}
